Reference: PubChem BioAssay (NCI)
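Compound exposure: 48 hours, 5 concentrations, 96-well plates. Definition used: TGI = concentration required for complete inhibition of growth.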

Legend:
Experiment in all cases: NCI tumour cell line growth inhibition, 48 h
[1] = test system: U251 CNS
[2] = test system: IGROV1 ovarian
[3] = test system: COLO 205 colon
[4] = test system: EKVX NSCLC
[5] = test system: SK-MEL-28 melanoma
[6] = test system: KM20L2 colon
[7] = test system: SK-MEL-5 melanoma
[8] = test system: HCC-2998 colon
[9] = test system: OVCAR-8 ovarian
[10] = test system: UACC-62 melanoma
[11] = test system: SF-268 CNS
[12] = test system: SNB-19 CNS
[13] = test system: HOP-92 NSCLC
[14] = test system: SF-295 CNS
[15] = test system: SN12C renal
[16] = test system: SF-539 CNS
[17] = test system: SNB-75 CNS
[18] = test system: A549 NSCLC
[19] = test system: SK-MEL-2 melanoma
[20] = test system: NCI-H23 lung
[21] = test system: RXF 393 renal
[22] = test system: DLD-1 colon
[23] = test system: SNB-78 CNS
[24] = test system: OVCAR-3 ovarian
[25] = test system: SK-OV-3 ovarian
[26] = test system: M14 melanoma
[27] = test system: A498 renal
[28] = test system: XF 498 CNS
[29] = test system: ACHN renal
[30] = test system: CCRF-CEM leukemia
[31] = test system: HCT-15 colon
[32] = test system: K-562 leukemia
[33] = test system: DMS 273 small cell lung
[34] = test system: DMS 114 small cell lung
[35] = test system: TK-10 renal
[36] = test system: OVCAR-4 ovarian
[37] = test system: 786-0 renal
[38] = test system: SR leukemia
[39] = test system: UO-31 renal
[40] = test system: MOLT-4 leukemia
[41] = test system: CAKI-1 renal
[42] = test system: HOP-62 NSCLC
[43] = test system: LXFL 529 NSCLC
[44] = test system: RPMI-8226 leukemia
[45] = test system: SW-620 colon
[46] = test system: NCI-H460 lung
[47] = test system: M19-MEL melanoma
[48] = test system: HCT-116 colon
[49] = test system: UACC-257 melanoma
[50] = test system: KM12 colon
[51] = test system: HL-60(TB) leukemia
[52] = test system: LOX IMVI melanoma

Measured: TGI

COC(=O)C1CCC(=O)N1/C(C)=N/NC(=O)Nc1ccc(Cl)c(Cl)c1 (configuration not stated)
68.7 µM: [31]
> 100 µM: all other assays above
